Data as given in patent US20250179167A1, “IL-6 INHIBITOR AS TREATMENT FOR NEPHROPATHY” (YALE UNIVERSITY, priority 2022, published 2025).

Legend:
[1] = test system: control littermates and GR^ECKO mice; experiment: Etomoxir and C75 in non-diabetic and diabetic control littermates and GR^ECKO mice; assay type: in vivo, mouse; conditions: for level of renal fibrosis: nondiabetic control and GR^ECKO mice
Procedure: FIGS. 6A-6E show metabolic reprogramming by loss of endothelial GR loss worsens diabetic kidney disease. (FIG. 6A) Radiolabeled ^14C-palmitate uptake analysis in isolated endothelial cells from kidneys of nondiabetic and diabetic control, GR^ECKO Apoe^−/− and DKO mice. CPM of each sample were counted. Data were normalized to μg protein. Fold activity is presented. Endothelial cells isolated and cultured from six biologically independent mice/group were performed in triplicate and analyzed for ^14C-palmitate uptake analysis. Data are mean±SEM. (FIG. 6B) Radiolabeled [^14C]palmitate oxidation and [^14CO2]release were measured in isolated endothelial cells from kidneys of nondiabetic and diabetic control, GR^ECKO Apoe^−/− and DKO mice. CPM of each sample was counted. Data were normalized to μg protein. Fold activity is presented. Endothelial cells isolated and cultured from six biologically independent mice/group were performed in triplicate and analyzed for ^14C-palmitate uptake analysis. Data are mean±SEM. (FIG. 6C) Body weight, blood glucose, and kidney weight/body weight were measured at the end of these experiments. N=6 biologically independent mice from two experiments. Ex vivo radiolabeled [^14C]palmitate oxidation and [^14CO2]release were measured in kidneys. CPM of each sample was counted. Isolated endothelial cells from five biologically independent mice/group were analyzed in triplicate. Data are mean±SEM. (FIG. 6D) Masson trichrome, Sirius red and PAS staining were analyzed in the kidneys of control, etomoxir- and C75-treated diabetic mice. Representative images are shown; original magnification 300×. Relative area of fibrosis (%) and relative collagen deposition (%) were measured using the ImageJ program. N=8 biologically independent mice per/group from three independent experiments were analyzed. Scale bar 50 μm. Data are mean±SEM. (FIG. 6E) Immunohistochemical analysis of CPT1a and β-catenin. Representative images are shown; original magnification 300×. Scale bar 50 μm. N=6 biologically independent mice per group from three independent experiments. For all panels one-way ANOVA with Tukey post-test was used for analysis of statistical significance. Significance—*p<0.05, **p<0.01, ***p<0.001.
Body weight, blood glucose, and kidney/body weight ratio and fatty acid oxidation as represented by [^14CO2]release are shown. [^14C]palmitate was used as substrate and CPM counts were normalized by protein. n=6 biologically independent mice/group. Data are mean±SEM. One-way Anova with Tukey multiple comparison post hoc test was used to calculate statistical significance. Significance—*p<0.05.
Masson trichrome staining (upper panel) and Sirius red (lower panels) in etomoxir- and C75-treated non-diabetic control and GR^ECKO mice. Etomoxir (20 mg/kg) and C75 (15 mg/kg) were dosed (IP) three times per week for 3 weeks in GR^ECKO and control littermates. Representative images are shown; original magnification 400×. Area of fibrosis (%) and relative collage deposition (%) in n=6 biologically independent mice/group were combined from two independent experiments. Scale bar 50 μm. Data are mean±SEM. One-way Anova with Tukey multiple comparison post hoc test was used to calculate statistical significance. Significance-**p<0.01.
Animal Experimentation. All experiments were performed according to a protocol approved by the Institutional Animal Care and Use Committee at the Yale University School of Medicine and were in accordance with the National Institute of Health (NIH) Guidelines for the Care of Laboratory Animals Mice were housed at an ambient temperature of 68-79° F. with a humidity that ranged between 30%-70%. They were exposed to 12-h light-dark cycles Mice lacking the endothelial glucocorticoid receptor (GR) (known as GR^ECKO) and those lacking this receptor on the Apoe null background (DKO) were generated as previously described^25; these mice were on the C57BL/6 background. […]

diabetic CD-1 mice = experiment: FA modulators (fenofibrate, etomoxir, C75, simvastatin) in diabetic CD-1 mice; assay type: in vivo, mouse; conditions: for CPT1a level / FAO, as measured by [14CO2] release / β-catenin level / fibrogenic phenotype / level of fibrosis / level of GR protein in CD31 positive cells: diabetic CD-1 mice; for fibrogenic phenotype / level of fibrosis / level of GR protein in CD31 positive cells: treated for 4 weeks; for fibronectin mRNA level / αSMA mRNA level: diabetic kidneys, CD-1 mice
Procedure: FIG. 33A-33F show endothelial GR is essential for the action of anti-dyslipidemic drugs in the diabetic kidney disease. (FIG. 33A) Masson trichrome (MTS) and Sirius red staining in kidneys of control, diabetic, fenofibrate-, etomoxir-, C75- and simvastatin-treated diabetic mice. Representative images (original magnification 300×) are shown. Relative area of fibrosis (%) and relative collagen deposition (%) were measured using the ImageJ program. n=6 biologically independent mice/group combined from two experiments were analyzed. Scale bar 50 μm. (FIG. 33B) Co-immunolabeling of GR/CD31 was analyzed by fluorescence microscopy. FITC-labeled GR, rhodamine-labeled CD31 and DAPI were used. Representative images are shown; original magnification 300×. Scale bar 50 μm. n=6 biologically independent mice/group combined from two experiments were analyzed. (FIG. 33C) PCR gene analiof fibronectin and α-SMA in the kidneys. 18S was used as an internal control. n=6 biologically independent mice/group. (FIG. 33D) Blood glucose measurements in control, diabetic, fenofibrate-, etomoxir-, C75- and simvastatin-treated diabetic mice. n=6 biologically independent mice/group. (FIG. 33E) Radiolabeled [^14C]palmitate oxidation and [^14CO2]release were measured. CPM of each sample was counted. Endothelial cells isolated from six biologically independent mice were evaluated. Three independent experiments were analyzed. Data are mean±SEM (FIG. 33F) Immunohistochemical analysis of CPT1a and β-catenin was analyzed in the kidneys of control, diabetic, fenofibrate-, C75-, etomoxir- and simvastatin-treated diabetic mice. n=6 biologically independent mice/group. Representative images are shown; original magnification 400×. Scale bar 50 μm. Data are mean SEM. In all panels, one-way Anova with Tukey multiple comparison post hoc test was used to calculate statistical significance. Significance—*p<0.05, **p<0.01, ***p<0.001. Con: control, DM: diabetic, feno: fenofibrate.
A single IP dose of 200 mg/kg STZ was used to induce diabetes in CD-1 mice.
In one experiment, male mice were randomized to one of 4 groups sixteen weeks after induction of diabetes: (i) untreated, (ii) fenofibrate (100 mg/kg), (iii) simvastatin (40 mg/kg), or (iv) Wnt inhibitor (LGK974; 5 mg/kg). In each case, mice were treated for 4 weeks and compared to untreated diabetic CD-1 mice. In another experiment, male diabetic CD-1 mice were randomized into one of 3 groups: (i) untreated (vehicle), (ii) etomoxir (20 mg/kg) or (iii) C75 (15 mg/kg); in each case mice were treated (IP) three times/week for a total 4 weeks.
Morphological Evaluation. A point-counting method was utilized to evaluate the relative area of the mesangial matrix. The inventors analyzed PAS-stained glomeruli from each mouse using a digital microscope screen grid containing 540 (27×20) points. Masson's trichrome-stained images were evaluated by ImageJ software, and the fibrotic areas were estimated.
Sirius red staining. Deparaffinized sections were incubated with picrosirius red solution for 1 hour at room temperature. The slides were washed twice with acetic acid solution for 30 seconds per wash. The slides were then dehydrated in absolute alcohol three times, cleared in xylene, and mounted with a synthetic resin. Sirius red staining was analyzed using ImageJ software, and fibrotic areas were quantified.
Immunohistochemistry. Paraffin-embedded kidney sections (5 μm thick) were deparaffinized and rehydrated (2 min in xylene, four times; 1 min in 100% ethanol, twice; 1 min in 95% ethanol; 45 s in 70% ethanol; and 1 min in distilled water), and the antigen was retrieved in a 10 mM citrate buffer pH 6 at 98° C. for 60 min. To block the endogenous peroxidase, all sections were incubated in 0.3% hydrogen peroxide for 10 min. The immunohistochemistry was performed using a Vectastain ABC Kit (Vector Laboratories, Burlingame, CA). Mouse anti-β-catenin antibody (1:100) and CPT1a (Abnova; H00001374-DO1P; 1:100) antibodies were used. […]

[2] = kidney ECs from diabetic GR^ECKO mice
[3] = kidney ECs, non-diabetic control littermates
[4] = kidneys of diabetic GR^ECKO mice
[5] = kidneys of diabetic control mice

C=C1C(=O)OC(CCCCCCCC)C1C(=O)O (stereo not shown) [C75]
expression of CPT1a (immunohistochemical analysis, FIG. 6E) ([1]; diabetic GR^ECKO mice): A similar pattern was observed | expression of β-catenin (immunohistochemical analysis, FIG. 6E) ([1]; diabetic GR^ECKO mice): A similar pattern was observed | expression of CPT1a (immunohistochemical analysis, FIG. 6E) ([1]; diabetic control mice): substantially reverse | expression of β-catenin (immunohistochemical analysis, FIG. 6E) ([1]; diabetic control mice): substantially reverse | FAO [1, 2]: unable to rescue | FAO [1, 3]: restored FAO | CPT1a level [1, 4]: also observed in the GR^ECKO mice, though to a lesser extent | level of β-catenin [1, 4]: also observed in the GR^ECKO mice, though to a lesser extent | renal fibrogenic phenotype [1, 4]: also observed in the GR^ECKO mice, though to a lesser extent | CPT1a level [1, 5]: restored CPT1a | level of β-catenin [1, 5]: completely diminished the level of β-catenin | renal fibrogenic phenotype [1, 5]: clearly abolished the renal fibrogenic phenotype | level of renal fibrosis [1]: mitigated | CPT1a level (diabetic CD-1 mice): increased the expression of CPT1a | FAO, as measured by [14CO2] release (diabetic CD-1 mice): increased the level of FAO | β-catenin level (diabetic CD-1 mice): suppressed the level of β-catenin | fibrogenic phenotype / level of fibrosis (diabetic CD-1 mice): ameliorated the fibrogenic phenotype | level of GR protein in CD31 positive cells (diabetic CD-1 mice): restored | fibronectin mRNA level (diabetic CD-1 mice): downregulated | αSMA mRNA level (diabetic CD-1 mice): downregulated

CCOC(=O)[C@@]1(CCCCCCOc2ccc(Cl)cc2)CO1 [etomoxir]
expression of CPT1a (immunohistochemical analysis, FIG. 6E) ([1]; diabetic GR^ECKO mice): A similar pattern was observed | expression of β-catenin (immunohistochemical analysis, FIG. 6E) ([1]; diabetic GR^ECKO mice): A similar pattern was observed | expression of CPT1a (immunohistochemical analysis, FIG. 6E) ([1]; diabetic control mice): decreased expression of CPT1a | expression of β-catenin (immunohistochemical analysis, FIG. 6E) ([1]; diabetic control mice): increasing expression of β-catenin | FAO [1, 2]: significant suppression of FAO | FAO [1, 3]: significant suppression of FAO | CPT1a level [1, 4]: suppressed the CPT1a level | level of β-catenin [1, 4]: increased the expression level of β-catenin | renal fibrogenic phenotype [1, 4]: accelerated the renal fibrogenic phenotype | CPT1a level [1, 5]: suppressed the CPT1a level | level of β-catenin [1, 5]: increased the expression level of β-catenin | renal fibrogenic phenotype [1, 5]: accelerated the renal fibrogenic phenotype | level of renal fibrosis [1]: slightly increased the level of renal fibrosis | CPT1a level (diabetic CD-1 mice): significant suppression | FAO, as measured by [14CO2] release (diabetic CD-1 mice): significant suppression | β-catenin level (diabetic CD-1 mice): induced the expression of β-catenin | fibrogenic phenotype / level of fibrosis (diabetic CD-1 mice): exacerbated the fibrosis | level of GR protein in CD31 positive cells (diabetic CD-1 mice): suppressed it | fibronectin mRNA level (diabetic CD-1 mice): upregulated | αSMA mRNA level (diabetic CD-1 mice): upregulated
